In patent publication EP0741132B1, “INDOLE DERIVATIVES” (KYOWA HAKKO KOGYO CO., LTD., priority 1994, dated 1995):

Tests used:
calvaria = assay: Inhibitory effect on bone absorption (calcium liberation from PTH enhanced cultured calvaria); format: cell-based; conditions: newborn dd mouse calvaria culture, PTH 1 x 10^-8M, 96 hours, total calcium in the culture
Protocol: The calvaria was excised from a newborn dd mouse (5 to 6 days old) under sterile conditions. The calvaria was washed with a modified Dulbecco phosphate buffer physiological saline solution containing neither calcium nor magnesium (a product of Gibco Oriental), and divided into two parts along the center suture. A half of the calvaria was cultivated in a modified Dulbecco Eagle medium (1.5 ml) (a product of Gibco Oriental) containing 2.5% fetal calf serum and 15% equine serum which had been inactivated by heating at 56°C for 20 minutes. The test compound was dissolved in dimethyl sulfoxide and 10 µl of the resulting solution was added to the culture medium to give the final concentrations of 3 x 10^-6M, 1 x 10^-5M, and 3 x 10^-5M. PTH (parathyroid hormone) was dissolved in a 0.15 M saline solution (pH 3) and 3 µl of the resulting solution was added to the culture medium to give the final concentration of 1 x 10^-8M. The culturing was carried out under the condition of 95 % air and 5 % carbon dioxide and at a temperature of 37°C for 96 hours. At 48 hours after the start of the culturing, the culture medium was renewed and the test compound and PTH treated as defined above were added thereto. For examining the effect of the test compound on calcium liberation (bone absorption) from the PTH enhanced bone, a control group, a group using PTH (1 x 10^-8M), and a group using both the test compound (3 x 10^-6M, 1 x 10^-5M, 3 x 10^-5M) and PTH were prepared. The amount of the bone absorption was determined by measuring the amount of calcium accumulated in the culture as collected after 96 hours of culturing. The total calcium concentration in the culture was measured with Calcium C Test Wako. The inhibition rate was calculated using the following equation and the result was shown in terms of 50% inhibitory concentration (IC50). Inhibition of bone absorption from PTH enhanced bone Inhibition rate (%) = [(CP - CD )/(CP - C0 )] x 100 [formula] C0 : The total calcium concentration in the culture containing neither the test compound nor PTH. CP : The total calcium concentration in the culture treated with only PTH. CD : The total calcium concentration in the culture treated . with both the test compound and PTH.

bone density = assay: Inhibitory effect on decrease of bone density by ovariectomy; format: in vivo; conditions: ovariectomized female SD strain rats, 10 mg/kg orally once a day for 3 weeks, right hindlimb, DEXA (DXA) method
Protocol: The experiment was carried out using 10-weeks-old female SD strain rats (Charles River Japan Inc.) The ovaries on both sides of the rats were excised under anesthesia using Nembutal. The test compound (10 mg/kg) was dissolved or suspended in distilled water for injection (a product of Otsuka Pharmaceutical Co., Ltd.) and administered orally once a day from the first day after the operation for 3 weeks. For the control group, distilled water for injection alone was administered. The rat was slaughtered by neck dislocation, the right hindlimb was ablated, and then the bone density of the neck was measured according to a DEXA (DXA) method [Japan Clinic, 52 (9), 2329-2334 (1994)] using bone mineral measuring apparatus DCS-600 (a product of Aloka Co., Ltd.) The inhibition rate of decrease in the bone density of the test compound-administered group was calculated from the decrease of the bone density in the test compound-administered group and that in the control group.

IC50 (calvaria) [µM]	Structure (SMILES)	Inhibition rate of decrease in bone density (%) (bone density)
> 30	O=C(c1[nH]c2ccccc2c1C(c1ccc(O)cc1)c1ccc(O)cc1)N1CCN(c2ccccc2Cl)CC1 [Compound 8, 1-{3-[Bis(4-hydroxyphenyl)methyl]indol-2-ylcarbonyl}-4-(2-chloroghenyl)piperazine]	–
11.5	CN(C)CCn1c(C(=O)N2CCN(c3ccccc3Cl)CC2)c(C(c2ccc(O)cc2)c2ccc(O)cc2)c2ccccc21.CS(=O)(=O)O [Compound 9, 1-{3-[Bis(4-hydroxyphenyl)methyl]-1-(2-dimethylaminoethyl)indol-2-ylcarbonyl}-4-(2-chlorophenyl)piperazine methanesulfonate]	97
9.6	CS(=O)(=O)O.O=C(c1c(C(c2ccc(O)cc2)c2ccc(O)cc2)c2ccccc2n1CCN1CCOCC1)N1CCN(c2ccccc2Cl)CC1 [Compound 10, 1-{3-[Bis(4-hydroxyphenyl)methyl]-1-(2-morpholinoethyl)indol-2-ylcarbonyl}-4-(2-chlorophenyl)-piperazine methanesulfonate]	33
> 30	CCCNC(=O)c1c(C(c2ccc(O)cc2)c2ccc(O)cc2)c2ccccc2n1CCN(C)C [Compound 11, N-Propyl-3-[bis(4-hydroxyphenyl)methyl]-1-(2-dimethylaminoethyl)indole-2-carboxamide methanesulfonate]	–
> 30	CC(C)NC(=O)c1c(C(c2ccc(O)cc2)c2ccc(O)cc2)c2ccccc2n1CCN(C)C [Compound 12, N-Isopropyl-3-[bis(4-hydroxyphenyl)methyl]-1-(2-dimethylaminoethyl)indole-2-carboxamide methanesulfonate]	–
15	CN(C)CCn1c(C(=O)N2CCCCC2)c(C(c2ccc(O)cc2)c2ccc(O)cc2)c2ccccc21 [Compound 13, 1-{3-[Bis(4-hydroxyphenyl)methyl]-1-(2-dimethylaminoethyl)indol-2-ylcarbonyl)piperidine methanesulfonate]	–
11.9	CN(C)CCn1c(C(=O)NC2CCCCCC2)c(C(c2ccc(O)cc2)c2ccc(O)cc2)c2ccccc21 [Compound 14, N-Cycloheptyl-3-[bis (4-hydroxyphenyl)methyl]-1-(2-dimethylaminoethyl)indole-2-carboxamide methanesulfonate]	–
